# Reference: ChEMBL document CHEMBL5725949, “Pyrazolopyridine derivatives and their use in therapy” (2018)
# pIC50: −log10 of the molar value.
# Assay: Antitrypanosomal Activity Assay: Antitrypanosomal activity was tested on T. brucei brucei bloodstream from parasites (strain¿Lister 427, VATMITat 1.2). Stock solutions of compounds (50 mM) were prepared in DMSO. Two fold serial dilutions of each compound (10 wells in each row) were prepared in 96 well plates in HMI111 medium (100 μl/well; quadruplicates; cf. also Hirumi et al., J. Parasitol. 75 (1989), 985-989). One well without compound, and one well with media alone were included in each row. Parasites grown in HMI11 were inoculated (100 μl of 4×10^4/ml) in all wells (except the well with ¿media alone¿) giving a final concentration of parasites of 2×10^4/ml. The plates were incubated for 66 hours at 37° C. in the incubator with 5% CO2. 20 μl resazurin (Sigma, 0.125 mg/ml in Hanks Balanced Salt Solution) was added to all wells and the plate was further incubated for 6 hours. Change in color of resazurin (blue to pink) by living cells was measured with a 96 well plate reader (excitation at 530 nm, emission at 585 nm, filter cut-off: 570 nm). Percent inhibition values were calculated by setting the well without compound to ¿0% inhibition¿.
row,Compound,pIC50
1,COc1ccc(CN2CCc3nn4c(c3C2)C(=O)N(Cc2cccc3ccccc23)CC4)c2ccccc12,5.37
2,COc1ccc(CN2CCc3c(c(C(=O)NCc4cccc5ccccc45)nn3CCN3CCOCC3)C2)c2ccccc12,6.00
3,Cc1ccccc1-c1ccc(CN2CCc3c(c(C(=O)NCc4ccccc4)nn3CCO)C2)cc1,5.56
4,NCCn1nc(C(=O)NCc2cccc3ccccc23)c2c1CCN(Cc1ccc(Cl)cc1)C2,6.01
5,O=C(NCc1ccccc1)c1nn(CCO)c2c1CN(Cc1cccn1-c1ccccn1)CC2,4.98
6,O=C(NCc1cccc2ccccc12)c1nn(CCO)c2c1CN(CCc1ccccc1)CC2,4.57
7,COc1ccc(CN2CCc3c(c(C(=O)NCc4cccc5ccccc45)nn3CCNC(=N)N)C2)c2ccccc12,6.66
8,CCCc1ccc(CN2CCc3c(c(C(=O)NCc4cccc5ccccc45)nn3CCO)C2)cc1,5.36
9,COc1ccc(CN2CCc3[nH]nc(C(=O)NCc4cccc5ccccc45)c3C2)c2ccccc12,5.95
10,O=C(NCc1cccc2ccccc12)c1nn(CCO)c2c1CN(Cc1cccc3c1OCO3)CC2,4.80
11,O=C(NCc1ccccc1)c1nn(CCO)c2c1CN(Cc1cc3ccccc3c3ccccc13)CC2,5.47
12,Cn1nc(C(=O)NCc2ccccc2)c2c1CCN(Cc1c[nH]c3cc(OCc4ccccc4)ccc13)C2,5.77
13,COc1ccc(CN2CCc3c(c(C(=O)NCc4cccc5ccccc45)nn3CCN)C2)c2c1CCCC2,6.24
14,CC(NC(=O)c1nn(CCO)c2c1CN(C(=O)c1ncc3sccn13)CC2)c1ccccc1 (stereo not drawn),4.30
15,CC(NC(=O)c1nn(CCO)c2c1CN(CC1Cc3ccccc3CN1C)CC2)c1ccccc1 (stereo not drawn),4.87
16,COc1ccc(CN2CCc3c(c(C(=O)NCc4cccc5ccccc45)nn3-c3ccccc3)C2)c2ccccc12,6.62
17,Cc1ccc(CCN2CCc3c(c(C(=O)NCc4cccc5ccccc45)nn3CCO)C2)cc1,3.94
18,Cn1nc(C(=O)NCc2ccccc2)c2c1CCN(Cc1ccc(-c3ccccc3)cc1)C2,5.39
19,O=C(NCc1ccccc1)c1nn(CCO)c2c1CN(CC(c1ccccc1)c1ccccc1)CC2,5.27
20,CC(NC(=O)c1nn(CCO)c2c1CN(Cc1ccc3ccoc3c1)CC2)c1ccccc1 (stereo not drawn),4.79
21,O=C(NCc1ccccc1)c1nn(CCO)c2c1CN(Cc1cnn(-c3ccccc3)c1)CC2,4.90
22,O=C(NCc1cccc2ccccc12)c1nn(CCO)c2c1CN(Cc1c[nH]c3c(C(=O)O)cccc13)CC2,4.37
23,O=C(c1nn(Cc2ccccn2)c2c1CN(Cc1ccccc1)CC2)N1CCc2ccccc2C1,5.02

row,Compound,pIC50
1,COc1ccc(CN2CCc3c(c(C(=O)NCc4cccc5ccccc45)nn3Cc3ccccc3)C2)c2ccccc12,5.47
2,COc1ccc(CN2CCc3nn(CCO)c(C(=O)NCc4cccc5ccccc45)c3C2)c2ccccc12,4.62
3,COc1ccc(CN2CCc3c(c(C(=O)NCc4cccc5ccccc45)nn3C3CCC3)C2)c2ccccc12,5.70
4,Cn1nc(C(=O)NCc2ccc3ccccc3c2)c2c1CCN(Cc1c[nH]c3ccccc13)C2,5.58
5,CC(=O)c1ccc(CN2CCc3c(c(C(=O)NCc4ccccc4)nn3CCO)C2)cc1,4.65
6,O=C(NCc1ccccc1)c1nn(CCO)c2c1CN(Cc1ccc(-c3ccccc3)cc1)CC2,5.27
7,CCc1ccc(CN2CCc3c(c(C(=O)NCc4ccccc4)nn3CCO)C2)cc1,4.87
8,COc1ccc(CN2CCc3c(c(C(=O)NCc4cccc5cccnc45)nn3CCO)C2)c2ccccc12,5.53
9,COc1ccc(CN2CCc3c(c(C(=O)NCc4cccc5ccccc45)nn3C3CN(C(=O)C(C)(C)C)C3)C2)c2ccccc12,5.96
10,COc1ccc2c(CN3CCc4c(c(C(=O)NCc5cccc6ccccc56)nn4CCO)C3)c[nH]c2c1,5.60
11,CC(NC(=O)c1nn(CCO)c2c1CN(Cc1cccc3c1OCO3)CC2)c1ccccc1 (stereo not drawn),4.75
12,CC(NC(=O)c1nn(CCO)c2c1CN(Cc1cnn(-c3ccccc3)c1)CC2)c1ccccc1 (stereo not drawn),4.84
13,COc1ccc2[nH]c(CN3CCc4c(c(C(=O)NCc5cccc6ccccc56)nn4CCO)C3)cc2c1,5.15
14,COc1ccc(CN2CCc3c(c(C(=O)NCc4cccc5ccccc45)nn3-c3cnccn3)C2)c2ccccc12,5.59
15,COc1ccc(CN2CCc3c(c(C(=O)NCc4cccc5ccccc45)nn3C3CCCC3)C2)c2ccccc12,5.91
16,NCCn1nc(C(=O)NCc2cccc3ccccc23)c2c1CCN(Cc1ccc(Cl)c(Cl)c1)C2,5.90
17,C=C(C)C1CC=C(CN2CCc3c(c(C(=O)NCc4ccccc4)nn3CCO)C2)CC1 (stereo not drawn),4.77
18,O=C(NCc1ccccc1)c1nn(CCO)c2c1CN(Cc1cccc(OC(F)F)c1)CC2,4.71
19,C=CCn1nc(C(=O)NCc2ccccc2)c2c1CCN(Cc1ccc3ncccc3c1)C2,5.02
20,Cn1nc(C(=O)NCc2ccccc2)c2c1CCN(Cc1noc3c1CCCC3)C2,4.35
21,O=C(NCc1cccc2ccccc12)c1nn(CCO)c2c1CN(Cc1ccc(F)c3ccccc13)CC2,4.47
22,COc1ccc(CN2CCc3c(c(C(=O)NCc4cccc5ccccc45)nn3CC(O)CN)C2)c2ccccc12 (stereo not drawn),6.21
23,O=C(NCc1ccccc1)c1nn(-c2ccccc2)c2c1CN(Cc1c[nH]c3ccccc13)CC2,5.64

row,Compound,pIC50
1,O=C(NCc1cccc2ccccc12)c1nn(CCO)c2c1CN(Cc1cccc3cc[nH]c13)CC2,5.33
2,Cn1nc(C(=O)NCc2ccccc2)c2c1CCN(Cc1cccc(-c3ccccc3)c1)C2,5.39
3,O=C(NCc1ccccc1)c1nn(CCO)c2c1CN(CC1=CC(=O)C3C=C(Cl)C=CC3O1)CC2 (stereo not drawn),4.45
4,Cc1nc2sccn2c1CN1CCc2c(c(C(=O)NCc3ccccc3)nn2CCO)C1,4.57
5,COc1cc(CN2CCc3c(c(C(=O)NCc4ccccc4)nn3CCO)C2)cc2c1OCO2,4.96
6,O=C(CC1CC1)N1CCc2c(c(C(=O)N3CCc4ccccc4C3)nn2Cc2ccccn2)C1,4.26
7,COc1ccc(CN2CCc3c(c(C(=O)NCc4cccc5[nH]ccc45)nn3CCO)C2)c2ccccc12,5.99
8,COC(=O)c1ccc2c(CN3CCc4c(c(C(=O)NCc5cccc6ccccc56)nn4CCO)C3)c[nH]c2c1,5.57
9,O=C(NCc1cccc2ccccc12)c1nn(CCO)c2c1CN(Cc1ccc(-c3ccccc3)cc1)CC2,6.06
10,O=C(NCc1ccccc1)c1nn(CCO)c2c1CN(Cc1ccc(OC(F)(F)F)cc1)CC2,4.90
11,O=C(NCc1ccccc1)c1nn(CCO)c2c1CN(Cc1ccc3c(c1)OC=CO3)CC2,4.63
12,Cn1nc(C(=O)NCc2cccc3ccccc23)c2c1CCN(Cc1cccc3ccccc13)C2,5.38
13,O=C(NCc1ccccc1)c1nn(CCO)c2c1CN(Cc1ccccc1C(F)(F)F)CC2,4.24
14,COc1ccc2cc(CN3CCc4c(c(C(=O)NCc5cccc6ccccc56)nn4CCO)C3)ccc2c1,4.74
15,O=C(NCc1cccc2ccccc12)c1nn(CCO)c2c1CN(Cc1ccc(C(F)(F)F)cc1)CC2,5.52
16,O=C(NCc1cccc2ccccc12)c1nn(CCO)c2c1CN(Cc1cccc(-c3ccccc3)c1)CC2,5.82
17,O=C(NCc1ccccc1)c1nn(CCO)c2c1CN(Cc1ccccc1-c1ccco1)CC2,5.17
18,O=C(NCc1cccc2ccccc12)c1nn(CCO)c2c1CN(Cc1c[nH]c3cc(OCc4ccccc4)ccc13)CC2,5.00
19,COc1ccc(CN2CCc3c(c(C(=O)NCc4cccc(C)c4)nn3CCO)C2)c2ccccc12,5.11
20,O=C(NCc1cccc2ccccc12)c1nn(CCO)c2c1CN(Cc1cccc3cccnc13)CC2,5.19
21,COc1ccc(CN2CCc3c(c(C(=O)NCc4cc(F)cc5ccccc45)nn3CCO)C2)c2ccccc12,4.95
22,COC(=O)c1cccc2c(CN3CCc4c(c(C(=O)NCc5ccccc5)nn4CCO)C3)c[nH]c12,4.88
